In patent US8173428B2, “LNA oligonucleotides and the treatment of cancer” (Santaris Pharma A/S, priority 2004, dated 2012):
Like-named read-outs stand apart in the source and are kept apart here. Oligonucleotides are written 5' to 3', each unit as a sugar letter and its base; * is a phosphorothioate linkage, no mark a phosphodiester; rarer units and linkages stand in square brackets, end groups in braces. Plain capitals give the bases only. l = locked nucleic acid (LNA); [5mC] = 5-methylcytosine; d = 2'-deoxy (DNA)

Tests used:
15PC3 cells = assay: MTS assay of proliferating viable cells; type: cell-based, human
Protocol: Culturing of cells: 15PC3 was cultured in DMEM (Sigma) containing 10% fetal bovine serum, Glutamax I and gentamicin at 37° C., 95% humidity and 5% CO2. The cervical carcinoma cell line HeLa were cultured in MEM (Sigma) containing 10% fetal bovine serum, Glutamax I and gentamicin at 37° C., 95% humidity and 5% CO2. When reaching 60-70% confluency, the cells were transfected using Lipofectamine 2000 (5 μg/ml).
Cells were seeded to a density of 10000 cells per well in clear 96 well plate (Scientific Orange no. 1472030100) in DMEM the day prior to transfection. The next day cells were washed once in prewarmed OptiMEM followed by addition of 72 μl OptiMEM containing 5 μg/ml Lipofectamine 2000 (Invitrogen). Cells were incubated for 7 min before adding 18 μl oligonucleotides diluted in OptiMEM. […] After 4 hours of treatment, cells were washed in OptiMEM and 100 μl serum containing DMEM was added. Following oligonucleotide treatment cells were allowed to recover for the period indicated, viable cells were measured by adding 20 μl of the tetrazolium compound [3-(4,5-[…])-5-(3-carboxymethoxyphenyl)-2-(4-sulfophenyl)-2H-tetrazolium, inner salt; MTS] and an electron coupling reagent (phenazine ethosulfate, PES; CellTiter 96® AQueous One Solution Cell Proliferation Assay, Promega). Viable cells were measured at 490 nm and 650 nm in a Powerwave (Biotek Instruments).
The inhibition of growth rate ΔOD (490-650 nm)/h was plotted against the oligonucleotide concentration relative to mock, which was set to 100%. The maximum inhibition of proliferation observed in the MTS assay was 70% (minimum 30%). (Table 5 and FIG. 5)

[1] = Stability in human plasma; type: in vitro ADME; details: 20 μM, 37° C., up to 96 hours
Protocol: (§1) Stability of 20 μM SEQ ID NO. 2 and SEQ ID NO. 24 in human and mouse plasma (Li-Heparine (Taconic, M&B)) at 37° C. at different time aliquots: 0, 1, 2, 4, 24, 48 and 96 hours. A commercially available ladder was also included (10 and 20 mer are visible on the PAGE). (see FIG. 1)

[2] = Stability in mouse plasma; type: in vitro ADME; details: 20 μM, 37° C., up to 96 hours
Protocol: as §1

Survivin protein = assay: Western blot analysis of Survivin protein levels in transfected 15PC3 cells; type: cell-based, human; details: 1, 10 and 25 nM, 12, 24 and 48 hours, compared with mock
Protocol: Cell culturing and transfections: 15PC3 cells were seeded in 12-well plates and grown for two days at 37° C. (5% CO2) in DMEM supplemented with 10% FBS, Glutamax I and Gentamicin. When the cells were 60-70% confluent, they were transfected in duplicates with different concentrations of oligonucleotides (0.2-25 nM) using Lipofectamine 2000 (10 μg/ml). Transfections were carried out essentially as described by Dean et al. (1994, JBC 269:16416-16424). In short, cells were incubated for 10 min. with Lipofectamine in OptiMEM followed by addition of oligonucleotide to a total volume of 0.5 ml transfection mix per well. After 4 hours, the transfection mix was removed, cells were washed and grown at 37° C. for approximately 20 hours (mRNA analysis) or 12-72 hours (protein analysis) in the appropriate growth medium. Cells were then harvested for protein and RNA analysis.
The in vitro effect of Survivin oligoes on Survivin protein levels in transfected cells was determined by Western Blotting.
Cells were harvested and lysed in 50 mM Tris-HCl pH 6.8, 10% glycerol, 2.5% SDS, 5 mM DTT and 6 M urea supplemented with protease inhibitor cocktail (Roche). Total protein concentrations were measured using a BCA protein assay kit (Pierce). 50 μg total protein was run on a 12% Bis-Tris gels in MOPS buffer and blotted onto a PVDF membranes according to manufacture's instructions (Invitrogen). […]

[3] = tested on: PC-3 human prostate cancer cells; assay: PC3 xenograft tumour growth inhibition in nude mice; type: in vivo, Balb/cA-nu mice; details: combined with Taxol, dose schedules A and B, after 27 days, versus single agent treatment or saline
Protocol: Model: PC-3 human prostate cancer cells (ECACC) are mixed with Matrigel and injected s.c. into both flanks of female Balb/cA-nu mice on Day 0.
Dosing: Saline solution of SEQ ID NO. 2 according to schedule, 2 mg/ml working solution, dosing volume 10 ml/kg; Taxol was used in the clinical formulation. The animals were dosed according to the average group weight on Day 0.
Administration: Oligonucleotides i.p. (see FIG. 8) or intratumoural (see FIG. 9), Taxol i.v., all according to schedule
Observations: Mortality (daily), body weight (twice per week),
Tumour volume: During the experiment, tumour volume is measured twice per week and calculated according to the formula (L×D^2×0.5), where L represents the largest diameter and D the tumour diameter perpendicular to L (mm).
Antitumour activity: Mean tumour weight of treated tumours will be compared with control group.
End of study: The animals will be sacrificed by cervical dislocation. Tumours, livers and spleens will be weighed.

rats = assay: i.v. acute toxicity study in rats; type: in vivo
Source text: For SEQ ID NO. 2 the following was found among others in preclinical toxicity studies: […]

For “5′-^MeCsTs^MeCsAsastscscsastsgsgs^MeCsAsGsc-3′ (l[5mC]*lT*l[5mC]*lA*dA*dT*dC*dC*dA*dT*dG*dG*l[5mC]*lA*lG*dC) [SEQ ID NO. 2]”, the “Proliferation (relative number of viable cells)” value (15PC3 cells; 0.2, 1, 5, 25 and 100 nM, 13-72 hours after transfection, 15PC3 cells) was “dose dependent inhibition of proliferation”, the IC50 (15PC3 cells; 48 hours (Table 7, FIG. 5), read-out: Proliferation IC50 (48 hours)) was 5 nM and the IC50 (15PC3 cells; 48 hours, transfected 15PC3 cells (Table 5), read-out: Inhibition of proliferation, MTS assay IC50 (48 hours)) was 4.9 nM. The “Stability in human plasma (degradation products)” value [1] was “No degradation products”, the “Stability in mouse plasma (degradation products)” value [2] was “No degradation products” and the “Survivin protein expression by Western blotting” value (Survivin protein) was “Survivin protein down-regulation”. The Tumour weight [3] was “Tumour weight reduction” and the lowest lethal dose (rats) was 1000 mg/kg.
